Results on six molecules are retold here after US11224561B2, “Skin cleansing composition” (KAO CORPORATION, priority 2017, dated 2022).

The nature of data set [1]: Detergency against keratotic plug after washing with water: collapse state. More on the design: species or system human. The note with it: samples of Table 1, washing with water. The source says:
The penetration was relatively evaluated by criteria with 11 ratings from the rating 1 “the sample hardly penetrated into the keratotic plug” to the rating 11 “the sample penetrated to the center of the keratotic plug”. The collapsibility by the detergency against keratotic plug was relatively evaluated by criteria with 11 ratings from the rating 1 “almost no change is observed in the external appearance of the keratotic plug” to the rating 11 “peeling or separation is observed in the area from the surface layer to the central portion of the keratotic plug (the initial appearance of the keratotic plug is not retained)”. After one minute from the contact of the keratotic plugs with the sample, Kimwipes (registered trademark) was brought into contact with an edge of the cover glass to remove the sample under the cover glass. […] The results of the evaluation are shown in the column “Keratotic plug detergency (during washing with water)” in Table. The measurements were performed at 25° C.

Data set [2] in a line: Detergency against keratotic plug during cleansing: penetration of the sample into keratotic plugs. More on the design: species or system human. The settings on record: samples of Table 1, contact for 1 minute. How it is done: Keratotic plugs in the nasal region were removed with “Biore Nose Pack (manufactured by Kao Corporation)”, the resulting keratotic plugs on the pack were gently taken out with tweezers. […] Consequently, the sample entered into the gap between the slide glass and the cover glass by capillary phenomenon and was brought into contact with the keratotic plugs. The contact of the keratotic plugs and the sample was recorded with a digital microscope (VHX-5000, manufactured by Keyence Corporation, magnification: 150×), and the penetration of the sample into the keratotic plugs and the collapse state of the keratotic plugs were evaluated after one minute from the contact of the keratotic plugs with the sample. The results of each evaluation are shown in the columns “Keratotic plug detergency (penetration)” and “Keratotic plug detergency (during cleansing)” in Tables. The measurements were performed at 25° C. The penetration was relatively evaluated by criteria with 11 ratings from the rating 1 “the sample hardly penetrated into the keratotic plug” to the rating 11 “the sample penetrated to the center of the keratotic plug”. The collapsibility by the detergency against keratotic plug was relatively evaluated by criteria with 11 ratings from the rating 1 “almost no change is observed in the external appearance of the keratotic plug” to the rating 11 “peeling or separation is observed in the area from the surface layer to the central portion of the keratotic plug (the initial appearance of the keratotic plug is not retained)”.

For data set [3] the following is noted: at 25° C.; cited from earlier work.
Data set [4] is described as follows: Detergency against keratotic plug during cleansing: collapse state of keratotic plugs. On the set-up: species or system human. The note with it: samples of Table 1, contact for 1 minute. As for the experimental part: Keratotic plugs in the nasal region were removed with “Biore Nose Pack (manufactured by Kao Corporation)”, the resulting keratotic plugs on the pack were gently taken out with tweezers.
The resulting keratotic plugs were placed on a slide glass and were covered with a cover glass, and 0.05 mL of a sample was dropwise added to an edge of the cover glass. Consequently, the sample entered into the gap between the slide glass and the cover glass by capillary phenomenon and was brought into contact with the keratotic plugs. The contact of the keratotic plugs and the sample was recorded with a digital microscope (VHX-5000, manufactured by Keyence Corporation, magnification: 150×), and the penetration of the sample into the keratotic plugs and the collapse state of the keratotic plugs were evaluated after one minute from the contact of the keratotic plugs with the sample. The results of each evaluation are shown in the columns “Keratotic plug detergency (penetration)” and “Keratotic plug detergency (during cleansing)” in Tables. The measurements were performed at 25° C.
The penetration was relatively evaluated by criteria with 11 ratings from the rating 1 “the sample hardly penetrated into the keratotic plug” to the rating 11 “the sample penetrated to the center of the keratotic plug”. The collapsibility by the detergency against keratotic plug was relatively evaluated by criteria with 11 ratings from the rating 1 “almost no change is observed in the external appearance of the keratotic plug” to the rating 11 “peeling or separation is observed in the area from the surface layer to the central portion of the keratotic plug (the initial appearance of the keratotic plug is not retained)”.

The test system of data set [5] is insoluble protein (seine protein). Briefly: Effect of suppressing protein aggregation (precipitation of insoluble protein). The note with it: sample of Table 1. How it is done: Thirty milliliters of a sample and 0.06 g of an insoluble protein (seine protein) were placed in a 35-mL standard glass bottle, and the concentration of the insoluble protein was adjusted to 0.2 mass % (test sample). Separately, a standard sample was prepared by using water instead of the sample and adjusting the concentration of the insoluble protein to 0.2 mass %. Subsequently, the standard glass bottles were sufficiently shaken and stirred up and down (shake width: 15 cm, 20 times at a rate of 5 times for 3 seconds) in a thermostatic chamber of 25° C. and were left to stand for 3 minutes. The precipitation state of the insoluble protein was then visually verified, and the ratio of the amount of the precipitated standard sample to the amount of the precipitated test sample (the height of the precipitate in each standard glass bottle was measured as the precipitation amount), (precipitation amount of standard sample)/(precipitation amount of test sample), was calculated. A higher ratio indicates a higher effect of suppressing protein aggregation.

As for `CC(N)(CO)CO` [AMPD, 2-amino-2-methyl-1,3-propanediol], the “swelling of sample-treated keratotic plugs on contact with water (in words)” value (shortened to “swelling”) in data set [1] is given as “swelled when contacted with water”. In addition, the “penetration of the sample into keratotic plugs (in words)” value (“penetration” below) in data set [2] is “penetrated into keratotic plugs”.

Turning to `CC(C)(N)CO` [Component (X3)], the pKa (as a rule, the pH at which an ionisable group is half protonated) in data set [3] is on record as 9.72.

Turning to `O=P([O-])([O-])O.[Na+].[Na+]` [disodium hydrogen phosphate], the “swelling” value in data set [1] was “did not swell even when contacted with water”. Further, in data set [2], the “penetration” value is reported as “hardly penetrated into keratotic plugs”. Also, the “collapse of keratotic plugs in contact with the sample (in words)” value (“collapse of keratotic plugs in contact” for short) in data set [4] is reported as “the collapse of the keratotic plugs did not progress”.

For the molecule `O=C([O-])O.[Na+]` [sodium hydrogen carbonate], the “swelling” value in data set [1] is given as “did not swell even when contacted with water”. In data set [2], the “penetration” value is on record as “hardly penetrated into keratotic plugs”. In data set [4], the “collapse of keratotic plugs in contact” value is “the collapse of the keratotic plugs did not progress”.

Turning to `O=P([O-])([O-])[O-].[Na+].[Na+].[Na+]` [trisodium phosphate], the “swelling” value in data set [1] is reported as “did not swell even when contacted with water”. For the same molecule, the “penetration” value in data set [2] is given as “hardly penetrated into keratotic plugs”. For the same molecule, the “collapse of keratotic plugs in contact” value in data set [4] is listed as “the collapse of the keratotic plugs did not progress”.

“sodium polyoxyethylene (2) lauryl ether sulfate [POE (2) sodium lauryl sulfate]”: in data set [2], the “penetration” value was “hardly penetrated into the keratotic plugs”. For the same molecule, in data set [5], the “action on proteins (in words)” value is given as “the action on proteins was strong to dissolve the proteins”. Also, the “collapse of keratotic plugs in contact” value in data set [4] is “the collapse of the keratotic plugs did not progress”.
